From US8623414B2, “Compositions comprising a lipid and copolymer of styrene and maleic acid” (Malvren Cosmeceutics Limited, priority 2005, dated 2014) come the findings set out here.

Where a SMILES comes first, the peptide text is derived from it. The star is where a group is joined. Palmitoyl = CCCCCCCCCCCCCCCC(=O)*

Series [1] can be described thus: Example 7: cosmetic gel preparation of Asc-P, clarity at pH 7. In kind it is physicochemical. The conditions noted are these: Solution A (hydrolysed SMA3000P 2.5%, 90H 1.0%, S-LPC 0.01%, Asc-P 0.1%, Phenonip 0.1%) mixed 1:1 with xanthan gum/carbopol gel. How it is done:
The emulsion was then homogenised for 10 minutes.
Preservative was then added to the solution and the pH adjusted.
Xanthan gum and carbopol were mixed with water and stirred until a uniform gel was formed. The pH was then adjusted to 7.
Solution A and Solution B were then mixed in equal volumes to produce the final preparation.

A short description of series [2]: Example 5: compositions of the invention to solubilise exemplary active agents (visual clarity, pH on clearing, clarity at pH 7). Particulars: SMA 3000HNa 2.5%, 90H 1%, S LPC 0.01%.
Description: A stock emulsion of cosurfactant, membrane forming lipid and active was prepared at double the desired final concentration. Cosurfactant was dissolved in water while heating (approximately 50° C.) and stirring. Lipid was then added, followed by continued stirring and heating until a uniform emulsion is formed. The emulsion was then homogenised for 10 minutes. After re-heating to approximately 50° C. the active component was added slowly under stirring until a uniform emulsion was present. The final emulsion was then homogenised for a further 10 minutes.
Stock solutions were prepared by mixing of the hydrolysed polymer with the appropriate volume of water.
Polymer/lipid mixtures were then prepared by the dropwise addition of the lipid containing emulsion to an equal volume of polymer solution while stirring and heating to approximately 50° C.
The pH of the mixtures was adjusted to determine the critical pH level at which macromolecular assemblies formed, and whether the resulting clear and colourless solution would remain at physiological pH.
Percentage values specified in this experiment refer to the weight of the component in question as a proportion of the total weight of the composition.
Mixtures were visually examined to determine whether the polymer/lipid assemblies had solubilised the active agent in the aqueous medium. The clarity of a mixture was categorised as being clear if there was no significant visible opacity to the naked eye, whereas a mixture was categorised as cloudy if there was significant visible disruption to the passage of light.

For `CCCCCCCCCCCCCCCC(=O)OC[C@H](O)[C@H]1OC(=O)C(O)=C1O` [Asc-P, L-ascorbyl palmitate], the “Appearance of cosmetic preparation” value in series [1] was “clear and colourless aqueous gel”. For the same molecule, in series [2] (active agent 0.1%), the “Clarity at pH 7” value is “Clear” and the pH on clearing is given as 8.87.
Take `CCCCCCCCCCCCCCCC(=O)OC[C@H](O)[C@H]1OC(=O)C(OC(=O)CCCCCCCCCCCCCCC)=C1O` [CP]: in series [2] (active agent 0.1%), the Clarity entry is “Clear”, the “Clarity at pH 7” value is on record as “Clear” and the pH on clearing worked out at 8.89.
On to `CC(C)CCC[C@@H](C)[C@H]1CC[C@H]2[C@@H]3CC=C4C[C@@H](O)CC[C@]4(C)[C@H]3CC[C@]12C` [Chol, Cholesterol], for which, in series [2] (active agent 0.1%), the Clarity entry is given as “Clear”, the “Clarity at pH 7” value was “Clear” and the pH on clearing came out at 8.95.
As for `CCCCCCCCCCCCCCCC(=O)N[C@@H](CCCCN)C(=O)N[C@H](C(=O)N[C@H](C(=O)N[C@@H](CCCCN)C(=O)N[C@@H](CO)C(=O)O)[C@@H](C)O)[C@@H](C)O` [Mat, palmityl-KTTKS] (Palmitoyl-KTTKS-OH; C-terminus assumed), in series [2] (active agent 0.5%), the Clarity result is listed as “Clear”, the “Clarity at pH 7” value is “Clear” and the pH on clearing is on record as 8.86.
`CCCCCCCCCCCCCCCC(=O)OC/C=C(C)/C=C/C=C(C)/C=C/C1=C(C)CCCC1(C)C` [Ret-P, Retinol palmitate]: in series [2] (active agent 0.25%), the Clarity result was “Clear”, the “Clarity at pH 7” value is given as “Clear” and the pH on clearing stood at 8.95.
Turning to `CCCCCCCCC(CCCCCC)C(=O)OC[C@H](OC(=O)C(CCCCCC)CCCCCCCC)[C@H]1OC(=O)C(OC(=O)C(CCCCCC)CCCCCCCC)=C1OC(=O)C(CCCCCC)CCCCCCCC` (stereo partly shown) [VC-IP], in series [2] (active agent 0.1%), the Clarity result is on record as “Clear”, the “Clarity at pH 7” value was “Clear” and the pH on clearing is reported as 8.89.
In the case of `CC1=C(/C=C/C(C)=C/C=C/C(C)=C/C=C/C=C(C)/C=C/C=C(C)/C=C/C2=C(C)CCCC2(C)C)C(C)(C)CCC1` [β-Car, β-carotene], in series [2] (active agent 0.1%), the Clarity entry is listed as “Clear”, the “Clarity at pH 7” value was “Clear” and the pH on clearing was 8.83. For the same molecule, in series [2] (active agent 0.25%), the Clarity entry was “Clear”, the “Clarity at pH 7” value is “Clear” and the pH on clearing is 8.83.
Take Ceramide IIIA: in series [2] (active agent 0.1%), the Clarity result was “Clear”, the “Clarity at pH 7” value is “Clear” and the pH on clearing turned out to be 8.89.
For the molecule acetyl hexapeptide 3 [Argir], the “Clarity at pH 7” value in series [2] (active agent 0.3%) is on record as “Clear”.
